Common to all, as to assay type: in vivo
Data set [1] relates to Abutilon theophrasti. In words: Post-emergence herbicidal action. The protocol:
(§1) Seeds of monocotyledonous and dicotyledonous weeds and crop plants were placed in sandy loam in plastic or wood-fiber pots, covered with soil and cultivated in a greenhouse under controlled growth conditions. 2 to 3 weeks after sowing, the test plants were treated at the one-leaf stage. The compounds of the invention, formulated in the form of wettable powders (WP) or as emulsion concentrates (EC), were then sprayed onto the green parts of the plants as aqueous suspension or emulsion with addition of 0.5% additive at a water application rate of […] (converted). After the test plants had been kept in the greenhouse under optimum growth conditions for about 3 weeks, the activity of the preparations was rated visually in comparison to untreated controls. For example, 100% activity=the plants have died, 0% activity=like control plants. Tables A1 to A14 below show the effects of selected compounds of the general formula (I) according to Tables I.1 to I.34 on various harmful plants and at an application rate corresponding to 20 g/ha and less, which were obtained by the experimental procedure mentioned above.

Data set [2] deals with Amaranthus retroflexus. In words: Post-emergence herbicidal action. The protocol:
as §1

The test system of data set [3] is Echinochloa crus-galli. The data set is described as follows: Post-emergence herbicidal action. The protocol:
as §1

Data set [4] deals with Pharbitis purpurea. The data set is described as follows: Post-emergence herbicidal action. The note with it: for pest or weed control at 5 g/ha / pest or weed control at 20 g/ha: Ipomoea purpurea, 504 h, read-out: Pharbitis purpurea (efficacy in %). The protocol:
as §1

Data set [5] deals with Polygonum convolvulus. In words: Post-emergence herbicidal action. As to conditions: Fallopia convolvulus, 504 h, read-out: Polygonum convolvulus (efficacy in %); for pest or weed control at 5 g/ha: application rate 5 g/ha; for pest or weed control at 20 g/ha: application rate 20 g/ha. The protocol: as §1
In data set [6] the test system is Setaria viridis. In words: Post-emergence herbicidal action. The note with it: 504 h, read-out: Setaria viridis (efficacy in %); for pest or weed control at 5 g/ha: application rate 5 g/ha; for pest or weed control at 20 g/ha: application rate 20 g/ha. The protocol: as §1
The test system of data set [7] is Stellaria media. In words: Post-emergence herbicidal action. The protocol: as §1
Data set [8] relates to Veronica persica. In words: Post-emergence herbicidal action. The note with it: for pest or weed control at 5 g/ha / pest or weed control at 20 g/ha: Veronica persica, 504 h, read-out: Veronica persica (efficacy in %). The protocol:
as §1

In data set [9] the test system is Viola tricolor. In words: Post-emergence herbicidal action. The protocol:
as §1

For data set [10], the system named is Brassica napus. The data set is described as follows: Post-emergence crop plant compatibility. The protocol: as §1, with “plants.” for “plants. Tables A1 to A14 below show the effects of selected compounds of the general formula (I) according to Tables I.1 to I.34 on various harmful plants and at an application rate corresponding to 20 g/ha and less, which were obtained by the experimental procedure mentioned above.”
(§2) Here, the observed effects on selected crop plants are stated in comparison to the untreated controls (values in %).

Data set [11] concerns Glycine max. The data set is described as follows: Post-emergence crop plant compatibility. The protocol: as §1, with “plants.” for “plants. Tables A1 to A14 below show the effects of selected compounds of the general formula (I) according to Tables I.1 to I.34 on various harmful plants and at an application rate corresponding to 20 g/ha and less, which were obtained by the experimental procedure mentioned above.”
as §2

The subject of data set [12] is Oryza sativa. The data set is described as follows: Post-emergence crop plant compatibility. The protocol:
as §1, with “plants.” for “plants. Tables A1 to A14 below show the effects of selected compounds of the general formula (I) according to Tables I.1 to I.34 on various harmful plants and at an application rate corresponding to 20 g/ha and less, which were obtained by the experimental procedure mentioned above.”
as §2

Data set [13] concerns Triticum aestivum. In words: Post-emergence crop plant compatibility. The protocol: as §1, with “plants.” for “plants. Tables A1 to A14 below show the effects of selected compounds of the general formula (I) according to Tables I.1 to I.34 on various harmful plants and at an application rate corresponding to 20 g/ha and less, which were obtained by the experimental procedure mentioned above.”
as §2

The test system of data set [14] is Zea mays. The data set is described as follows: Post-emergence crop plant compatibility. The note with it: application rate 5 g/ha. The protocol: as §1, with “plants.” for “plants. Tables A1 to A14 below show the effects of selected compounds of the general formula (I) according to Tables I.1 to I.34 on various harmful plants and at an application rate corresponding to 20 g/ha and less, which were obtained by the experimental procedure mentioned above.”
as §2

Data set [15] has as its system Alopecurus myosuroides. The data set is described as follows: Post-emergence herbicidal action. The protocol: as §1
The subject of data set [16] is Lolium rigidum. The data set is described as follows: Post-emergence herbicidal action. As to conditions: application rate 20 g/ha. The protocol: as §1
Data set [17] relates to Matricaria inodora. The data set is described as follows: Post-emergence herbicidal action. The protocol:
as §1

Data set [18] concerns Avena fatua. In words: Post-emergence herbicidal action. The note with it: application rate 20 g/ha. The protocol:
as §1

Data set [19] deals with Digitaria sanguinalis. The data set is described as follows: Post-emergence herbicidal action. The note with it: 504 h, read-out: Digitaria sanguinalis (efficacy in %). The protocol:
as §1

The mark [20] stands for this setting: Abutilon theophrasti, 504 h, application rate 20 g/ha, read-out: Abutilon theophrasti (efficacy in %).
The mark [21] stands for this setting: Amaranthus retroflexus, 504 h, application rate 5 g/ha, read-out: Amaranthus retroflexus (efficacy in %).
Where [22] appears, read: Echinochloa crus-galli, 504 h, application rate 20 g/ha, read-out: Echinochloa crus-galli (efficacy in %).
The mark [23] stands for this setting: Viola tricolor, 504 h, application rate 5 g/ha, read-out: Viola tricolor (efficacy in %).

Experimental findings from patent US20220274954A1, “SUBSTITUTED N-PHENYL-N-AMINOUARCILS AND SALTS THEREOF AND USE THEREOF AS HERBICIDAL AGENTS” (Bayer Aktiengesellschaft, priority 2019, published 2022) are described below.

For `Nn1c(C(F)(F)F)cc(=O)n(-c2cc(Sc3cccnc3OCCC(=O)OCc3ccccc3)c(Cl)cc2F)c1=O` [I.5-457, Benzyl 3-{[3-({5-[3-amino-2,6-dioxo-4-(trifluoromethyl)-3,6-dihydropyrimidin-1(2H)-yl]-2-chloro-4-fluorophenyl}sulfanyl)pyridin-2-yl]oxy}propanoate], the pest or weed control at 20 g/ha in data set [1] (setting [20]) stood at 80%; in data set [3] (setting [22]), 80%; in data set [4] (application rate 20 g/ha), 90%; in data set [5] it was 100%; in [6], 100%; in data set [8] (application rate 20 g/ha), 100%. For the same compound, the pest or weed control at 5 g/ha was 100% in data set [2] (setting [21]); 90% in data set [4] (application rate 5 g/ha); 90% in [5]; 100% in data set [6]; 100% in data set [8] (application rate 5 g/ha); 100% in [9] (setting [23]). Further, the “Stellaria media (efficacy in %)” value in [7] (application rate 5 g/ha) is on record as 80%; in data set [7] (application rate 20 g/ha), 100%. Moreover, the results for the “Brassica napus (efficacy in %)” value in [10] (application rate 1.25 g/ha) and in data set [10] (application rate 5 g/ha) were 0% and 10%, respectively. Besides, the “Glycine max (efficacy in %)” value in data set [11] (application rate 1.25 g/ha) is reported as 0%; in [11] (application rate 5 g/ha) it was 10%. The “Oryza sativa (efficacy in %)” value in data set [12] (application rate 1.25 g/ha) is given as 0%; in data set [12] (application rate 5 g/ha), 10%. In data set [13] (application rate 5 g/ha), the “Triticum aestivum (efficacy in %)” value is recorded as 20%. Moreover, the “Zea mays (efficacy in %)” value in data set [14] stood at 20%.
Take `Nn1c(C(F)(F)F)cc(=O)n(-c2cc(Sc3cccnc3OCC(=O)O)c(Cl)cc2F)c1=O` [I.1-481]: the “Abutilon theophrasti (efficacy in %)” value in data set [1] (application rate 5 g/ha) and in data set [1] (application rate 20 g/ha) was 100% each time. Moreover, the “Alopecurus myosuroides (efficacy in %)” value in data set [15] (application rate 5 g/ha) and in data set [15] (application rate 20 g/ha) was 100% throughout. Further, the “Amaranthus retroflexus (efficacy in %)” value in data set [2] (application rate 5 g/ha) and in data set [2] (application rate 20 g/ha) was 100% each time. Moreover, the “Echinochloa crus-galli (efficacy in %)” value in data set [3] (application rate 5 g/ha) worked out at 90%; in data set [3] (application rate 20 g/ha) it was 100%. In addition, in data set [16], the “Lolium rigidum (efficacy in %)” value amounted to 80%. Moreover, the “Matricaria inodora (efficacy in %)” value in [17] (application rate 5 g/ha) amounted to 90%; in data set [17] (application rate 20 g/ha), 100%. In addition, the “Pharbitis purpurea (efficacy in %)” value is 80% in [4] (application rate 5 g/ha) and 100% in data set [4] (application rate 20 g/ha). For the same compound, the “Veronica persica (efficacy in %)” value in [8] (application rate 5 g/ha) and in [8] (application rate 20 g/ha) was 100% in each case. Also, the “Viola tricolor (efficacy in %)” value in data set [9] (application rate 5 g/ha) and in data set [9] (application rate 20 g/ha) was 100% throughout. Moreover, the “Oryza sativa (efficacy in %)” value is given as 10% in data set [12] (application rate 1.25 g/ha) and 20% in data set [12] (application rate 5 g/ha). Further, in data set [13] (application rate 1.25 g/ha), the “Triticum aestivum (efficacy in %)” value is listed as 20%.
For `CCOCCOC(=O)COc1ncccc1Sc1cc(-n2c(=O)cc(C(F)(F)F)n(N)c2=O)c(F)cc1Cl` [I.1-2, 2-Ethoxyethyl {[3-({5-[3-amino-2,6-dioxo-4-(trifluoromethyl)-3,6-dihydropyrimidin-1(2H)-yl]-2-chloro-4-fluorophenyl}sulfanyl)pyridin-2-yl]oxy}acetate], the pest or weed control at 5 g/ha is 100% in data set [1] (Abutilon theophrasti, 504 h, application rate 5 g/ha, read-out: Abutilon theophrasti (efficacy in %)); 100% in [2] (setting [21]); 100% in [19] (application rate 5 g/ha); 90% in data set [3] (Echinochloa crus-galli, 504 h, application rate 5 g/ha, read-out: Echinochloa crus-galli (efficacy in %)); 100% in [17] (Tripleurospermum inodorum, 504 h, application rate 5 g/ha, read-out: Matricaria inodora (efficacy in %)); 100% in [4] (application rate 5 g/ha). In addition, the pest or weed control at 5 g/ha in [5], in data set [6], in [8] (application rate 5 g/ha) and in data set [9] (setting [23]) was 100% throughout. The pest or weed control at 20 g/ha came to 100% in [1] (setting [20]); 100% in [2] (Amaranthus retroflexus, 504 h, application rate 20 g/ha, read-out: Amaranthus retroflexus (efficacy in %)); 100% in data set [19] (application rate 20 g/ha); 100% in [3] (setting [22]); 100% in [17] (Tripleurospermum inodorum, 504 h, application rate 20 g/ha, read-out: Matricaria inodora (efficacy in %)); 100% in data set [4] (application rate 20 g/ha). Further, the pest or weed control at 20 g/ha in [5] is 100%; in [6] it was 100%; in [8] (application rate 20 g/ha), 100%; in data set [9] (Viola tricolor, 504 h, application rate 20 g/ha, read-out: Viola tricolor (efficacy in %)), 100%. In data set [15] (application rate 20 g/ha), the “Alopecurus myosuroides (efficacy in %)” value came out at 100%. Further, the “Avena fatua (efficacy in %)” value in [18] is on record as 80%. In addition, the “Lolium rigidum (efficacy in %)” value in data set [16] is given as 80%. Moreover, the entries for the “Oryza sativa (efficacy in %)” value in data set [12] (application rate 1.25 g/ha) and in [12] (application rate 5 g/ha) were 0% and 10%, respectively. Also, in data set [13] (application rate 1.25 g/ha), the “Triticum aestivum (efficacy in %)” value is 0%.
For the compound `C=CCOC(=O)COc1ncccc1Sc1cc(-n2c(=O)cc(C(F)(F)F)n(N)c2=O)c(F)cc1Cl` [I.1-471], the “Abutilon theophrasti (efficacy in %)” value in [1] (application rate 5 g/ha) and in [1] (application rate 20 g/ha) was 100% each time. The figures for the “Alopecurus myosuroides (efficacy in %)” value in [15] (application rate 5 g/ha) and in data set [15] (application rate 20 g/ha) were 80% and 100%, respectively. The “Amaranthus retroflexus (efficacy in %)” value in data set [2] (application rate 5 g/ha) and in [2] (application rate 20 g/ha) was 100% each time. Further, the “Avena fatua (efficacy in %)” value in [18] is given as 80%. Further, the “Echinochloa crus-galli (efficacy in %)” value in [3] (application rate 5 g/ha) is 90%; in data set [3] (application rate 20 g/ha) it was 100%. For the same compound, in data set [16], the “Lolium rigidum (efficacy in %)” value came to 80%. The “Matricaria inodora (efficacy in %)” value in [17] (application rate 5 g/ha) and in data set [17] (application rate 20 g/ha) was 100% in each case. In addition, the “Pharbitis purpurea (efficacy in %)” value in data set [4] (application rate 5 g/ha) and in data set [4] (application rate 20 g/ha) was 100% in each case. Also, the “Veronica persica (efficacy in %)” value in data set [8] (application rate 5 g/ha) and in data set [8] (application rate 20 g/ha) was 100% each time. In addition, the “Viola tricolor (efficacy in %)” value in data set [9] (application rate 5 g/ha) and in [9] (application rate 20 g/ha) was 100% throughout. In addition, the “Oryza sativa (efficacy in %)” value in data set [12] (application rate 1.25 g/ha) was determined as 0%. For the same compound, the figures for the “Triticum aestivum (efficacy in %)” value in [13] (application rate 1.25 g/ha) and in data set [13] (application rate 5 g/ha) were 10% and 20%, respectively. Further, in data set [14], the “Zea mays (efficacy in %)” value stood at 20%.
